From patent publication US12673936B2, “Isoindolinone compounds, and uses thereof” (HANGZHOU GLUBIO PHARMACEUTICAL CO., LTD., priority 2021, dated 2026)

Tests used:
HiBiT tagged CK1α = HiBiT tagged CK1α (Homo sapiens, UniProt P48729+Q96SW2); assay: CK1α degradation assay (HiBiT assay); assay type: cell-based; conditions: 20 hours; for Dmax: HT-1080, HT-1080 cells; for Dmax / HiBiT CK1α: Dmax: maximum CK1α degradation; for DC50 / HiBiT CK1α: Dmax: HT-1080 cells; for DC50: concentration at 50% CK1α degradation
Experimental: (§1) CK1α and GSPT1 Degradation Assay (HiBiT Assay) The following is an example of an assay that can be used to determine the dose-dependent CK1α and GSPT1 degradation activities of test compounds in a human cell line such as HT-1080 ([…]). HT-1080 cells stably overexpressing wild-type CRBN, GSPT1A(1-138)/G575N mutant and HiBiT tagged CK1α or GSPT1 were seeded into 384-well plates (Cat #3764, Corning) pre-spotted with DMSO or test compounds. Increasing concentrations of test compounds (ranging from 3.162×10^-4 μM to 10 μM at a 3.16-fold increment) or DMSO were dispensed into an empty 384-well plate using an Echo Acoustic Liquid Handler (Beckman Coulter). About 10,000 cells in complete DMEM cell culture media were seeded per well. […] Luminescence was then measured with an EnVision plate reader (PerkinElmer) or a PHERAstar plate reader (BMG Labtech). All CK1α or GSPT1 degradation curves were processed using Collaborative Drug Discovery Vault softwares (Burlingame, CA., www.collaborativedrug.com). CK1α or GSPT1 levels in compound-treated wells were normalized to that of DMSO control and expressed as Percent of Control (PoC, y). […]

HiBiT tagged GSPT1 = HiBiT tagged GSPT1 (Homo sapiens, UniProt P15170+Q96SW2); assay: GSPT1 degradation assay (HiBiT assay); assay type: cell-based; conditions: 20 hours, maximum GSPT1 degradation; for Dmax: HT-1080, HT-1080 cells; for HiBiT GSPT1: Dmax: HT-1080 cells
Experimental: as §1

Sequence of HiBiT tagged GSPT1 (P15170 whole entry): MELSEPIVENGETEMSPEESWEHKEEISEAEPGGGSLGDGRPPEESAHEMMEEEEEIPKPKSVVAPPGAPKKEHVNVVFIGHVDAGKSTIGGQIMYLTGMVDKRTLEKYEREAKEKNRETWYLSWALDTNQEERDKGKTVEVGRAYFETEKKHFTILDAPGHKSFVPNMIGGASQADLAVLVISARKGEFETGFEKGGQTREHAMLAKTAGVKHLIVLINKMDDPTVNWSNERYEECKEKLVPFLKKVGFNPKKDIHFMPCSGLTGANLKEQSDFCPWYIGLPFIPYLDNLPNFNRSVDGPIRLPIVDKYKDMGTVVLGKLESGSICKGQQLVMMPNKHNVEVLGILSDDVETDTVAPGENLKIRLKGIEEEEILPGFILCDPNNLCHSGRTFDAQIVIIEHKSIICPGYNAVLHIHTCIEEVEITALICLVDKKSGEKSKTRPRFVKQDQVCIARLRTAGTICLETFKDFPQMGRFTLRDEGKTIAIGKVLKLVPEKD
Sequence of HiBiT tagged GSPT1 (Q96SW2 whole entry): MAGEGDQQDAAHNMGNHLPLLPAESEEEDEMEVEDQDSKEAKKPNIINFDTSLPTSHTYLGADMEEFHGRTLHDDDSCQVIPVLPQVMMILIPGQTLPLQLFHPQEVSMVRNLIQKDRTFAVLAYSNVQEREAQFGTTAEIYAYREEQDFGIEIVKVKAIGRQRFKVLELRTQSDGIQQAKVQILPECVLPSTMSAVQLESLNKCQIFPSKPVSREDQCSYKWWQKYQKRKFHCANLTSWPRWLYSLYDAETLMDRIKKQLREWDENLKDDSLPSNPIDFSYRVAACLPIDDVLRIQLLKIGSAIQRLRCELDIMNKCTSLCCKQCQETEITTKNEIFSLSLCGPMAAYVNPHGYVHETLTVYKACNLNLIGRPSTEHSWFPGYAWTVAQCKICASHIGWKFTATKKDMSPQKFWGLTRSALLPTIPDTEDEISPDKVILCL
Sequence of HiBiT tagged GSPT1 (Q16531 whole entry partner): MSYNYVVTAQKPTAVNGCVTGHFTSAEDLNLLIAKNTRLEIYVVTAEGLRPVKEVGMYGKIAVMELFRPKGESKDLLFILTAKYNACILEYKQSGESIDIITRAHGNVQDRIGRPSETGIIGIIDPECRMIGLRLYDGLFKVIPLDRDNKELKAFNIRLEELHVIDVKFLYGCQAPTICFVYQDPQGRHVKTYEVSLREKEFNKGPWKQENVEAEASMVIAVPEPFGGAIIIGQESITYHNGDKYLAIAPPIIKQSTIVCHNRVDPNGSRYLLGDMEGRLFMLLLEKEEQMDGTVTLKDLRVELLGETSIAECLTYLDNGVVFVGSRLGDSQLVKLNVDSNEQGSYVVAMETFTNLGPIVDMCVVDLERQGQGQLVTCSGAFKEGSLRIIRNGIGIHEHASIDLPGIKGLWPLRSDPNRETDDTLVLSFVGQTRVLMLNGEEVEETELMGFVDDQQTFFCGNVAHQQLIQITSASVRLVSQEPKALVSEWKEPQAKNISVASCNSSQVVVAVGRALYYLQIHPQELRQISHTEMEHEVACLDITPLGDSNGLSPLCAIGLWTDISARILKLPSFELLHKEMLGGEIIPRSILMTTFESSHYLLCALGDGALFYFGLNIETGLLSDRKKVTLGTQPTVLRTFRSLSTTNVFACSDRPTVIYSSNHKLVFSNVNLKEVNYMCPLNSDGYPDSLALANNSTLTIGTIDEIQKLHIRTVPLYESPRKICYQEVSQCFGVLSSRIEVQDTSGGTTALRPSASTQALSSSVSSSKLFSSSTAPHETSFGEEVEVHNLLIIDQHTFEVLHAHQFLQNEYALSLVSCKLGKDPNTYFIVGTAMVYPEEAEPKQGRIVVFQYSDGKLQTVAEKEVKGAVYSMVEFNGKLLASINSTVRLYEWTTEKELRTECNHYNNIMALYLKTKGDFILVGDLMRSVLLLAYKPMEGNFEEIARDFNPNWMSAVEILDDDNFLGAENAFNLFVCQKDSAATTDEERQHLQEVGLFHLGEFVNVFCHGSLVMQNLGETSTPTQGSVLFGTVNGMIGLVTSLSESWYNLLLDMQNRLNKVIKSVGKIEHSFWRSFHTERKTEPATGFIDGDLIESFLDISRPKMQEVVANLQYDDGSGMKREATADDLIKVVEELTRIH
Sequence of HiBiT tagged CK1α (P48729 whole entry): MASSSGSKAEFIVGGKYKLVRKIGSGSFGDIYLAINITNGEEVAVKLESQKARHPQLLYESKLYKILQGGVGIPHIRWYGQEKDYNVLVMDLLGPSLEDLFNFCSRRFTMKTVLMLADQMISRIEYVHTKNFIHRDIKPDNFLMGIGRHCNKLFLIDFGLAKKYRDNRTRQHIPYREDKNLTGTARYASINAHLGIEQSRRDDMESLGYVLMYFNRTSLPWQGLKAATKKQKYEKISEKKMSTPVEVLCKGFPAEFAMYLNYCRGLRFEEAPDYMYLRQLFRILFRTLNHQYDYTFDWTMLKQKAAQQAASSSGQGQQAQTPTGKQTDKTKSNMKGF
Sequence of HiBiT tagged CK1α (Q96SW2 whole entry): as the sequence (Q96SW2 whole entry) above
Sequence of HiBiT tagged CK1α (Q16531 whole entry partner): as the sequence (Q16531 whole entry partner) above

Row | Compound | Dmax (HiBiT tagged CK1α) | DC50 (HiBiT tagged CK1α) | Dmax (HiBiT tagged GSPT1) | HiBiT CK1α: Dmax (HiBiT tagged CK1α) | HiBiT GSPT1: Dmax (HiBiT tagged GSPT1)
1 | O=C1CCC(N2Cc3cc(C(=O)NC(c4ccc(F)c(F)c4)C4CCC4)ccc3C2=O)C(=O)N1 (stereo not shown) [Compound 40, N-(cyclobutyl(3,4-difluorophenyl)methyl)-2-(2,6-dioxopiperidin-3-yl)-1-oxoisoindoline-5-carboxamide] | 57.5% | 416 nM | 30.6% | – | –
2 | O=C1CCC(N2Cc3cc(C(=O)N[C@H](c4ccccc4F)C4CC4)ccc3C2=O)C(=O)N1 (stereo in doubt) [Compound 11, N-((*S)-cyclopropyl(2-fluorophenyl)methyl)-2-(2,6-dioxopiperidin-3-yl)-1-oxoisoindoline-5-carboxamide] | 64.7% | 308 nM | 23.4% | – | –
3 | O=C1CC[C@H](N2Cc3cc(C(=O)N[C@H](c4ccc(Cl)cc4F)C4CCC4)ccc3C2=O)C(=O)N1 (racemic) [Compound 57, N-((*S)-(4-chloro-2-fluorophenyl)(cyclobutyl)methyl)-2-((*S)-2,6-dioxopiperidin-3-yl)-1-oxoisoindoline-5-carboxamide] | – | 128 nM | – | 64.4% | 19.1%
4 | Cc1cccc([C@@H](NC(=O)c2ccc3c(c2)CN(C2CCC(=O)NC2=O)C3=O)C2CC2)c1 (stereo in doubt) [Compound 30, N-((*S)-cyclopropyl(m-tolyl)methyl)-2-(2,6-dioxopiperidin-3-yl)-1-oxoisoindoline-5-carboxamide] | 47.9% | – | 62.1% | – | –
5 | O=C1CCC(N2Cc3cc(C(=O)NC(c4ccc(F)cc4Cl)C4CCC4)ccc3C2=O)C(=O)N1 (single isomer, unassigned) [Compound 53, N-((*S)-(2-chloro-4-fluorophenyl)(cyclobutyl)methyl)-2-((*S)-2,6-dioxopiperidin-3-yl)-1-oxoisoindoline-5-carboxamide] | 70.2% | 118 nM | 24.2% | – | –
6 | O=C1CCC(N2Cc3cc(C(=O)N[C@H](c4ncccc4F)C4(F)CCC4)ccc3C2=O)C(=O)N1 (stereo in doubt) [Compound 88, 2-(2,6-dioxopiperidin-3-yl)-N-((*R)-(1-fluorocyclobutyl)(3-fluoropyridin-2-yl)methyl)-1-oxoisoindoline-5-carboxamide] | 55.4% | 394 nM | 14.9% | – | –
7 | O=C1CCC(N2Cc3cc(C(=O)NC(c4cccc(F)c4)C4CCC4)ccc3C2=O)C(=O)N1 (stereo not shown) [Compound 23, N-(cyclobutyl(3-fluorophenyl)methyl)-2-(2,6-dioxopiperidin-3-yl)-1-oxoisoindoline-5-carboxamide] | 61.3% | 198 nM | 32% | – | –
8 | O=C1CCC(N2Cc3cc(C(=O)N[C@H](c4ccc(Cl)cc4)C4CC4)ccc3C2=O)C(=O)N1 (stereo in doubt) [Compound 3, N—((*S)-(4-chlorophenyl)(cyclopropyl)methyl)-2-(2,6-dioxopiperidin-3-yl)-1-oxoisoindoline-5-carboxamide] | 50.6% | 5190 nM | 73.1% | – | –
9 | O=C1CCC(N2Cc3cc(C(=O)N[C@H](c4ccc(F)cc4Cl)C4CCC4)ccc3C2=O)C(=O)N1 (stereo in doubt) [Compound 73, N-((*S)-(2-chloro-4-fluorophenyl)(cyclobutyl)methyl)-2-(2,6-dioxopiperidin-3-yl)-1-oxoisoindoline-5-carboxamide] | 71.4% | 73.5 nM | 30.4% | – | –
10 | O=C1CCC(N2Cc3cc(C(=O)N[C@@H](c4cccc(F)c4)C4CC4)ccc3C2=O)C(=O)N1 (stereo in doubt) [Compound 25, N-((*R)-cyclopropyl(3-fluorophenyl)methyl)-2-(2,6-dioxopiperidin-3-yl)-1-oxoisoindoline-5-carboxamide] | 54.5% | 1580 nM | 48.4% | – | –
11 | O=C1CCC(N2Cc3cc(C(=O)N[C@H](c4c(F)cccc4F)C4CCC4)ccc3C2=O)C(=O)N1 (stereo in doubt) [Compound 67, N-((*S)-cyclobutyl(2,6-difluorophenyl)methyl)-2-(2,6-dioxopiperidin-3-yl)-1-oxoisoindoline-5-carboxamide] | 76.4% | 40 nM | 31.7% | – | –
12 | CN1CCN(c2ccc([C@@H](NC(=O)c3ccc4c(c3)CN(C3CCC(=O)NC3=O)C4=O)C3CCC3)cc2)CC1 (stereo in doubt) [Compound 21, N-((*S)-cyclobutyl(4-(4-methylpiperazin-1-yl)phenyl)methyl)-2-(2,6-dioxopiperidin-3-yl)-1-oxoisoindoline-5-carboxamide] | 60.6% | 132 nM | 20.6% | – | –
13 | O=C1CCC(N2Cc3cc(C(=O)N[C@@H](c4ccc(F)cc4Cl)C4CCC4)ccc3C2=O)C(=O)N1 (stereo in doubt) [Compound 72, N-((*R)-(2-chloro-4-fluorophenyl)(cyclobutyl)methyl)-2-(2,6-dioxopiperidin-3-yl)-1-oxoisoindoline-5-carboxamide] | 65.5% | 132 nM | 45.2% | – | –
14 | O=C1CC[C@H](N2Cc3cc(C(=O)N[C@H](c4ccc(Cl)cc4F)C4CCC4)ccc3C2=O)C(=O)N1 (racemic) [Compound 55, N-((*S)-(4-chloro-2-fluorophenyl)(cyclobutyl)methyl)-2-((*S)-2,6-dioxopiperidin-3-yl)-1-oxoisoindoline-5-carboxamide] | 57.8% | 948 nM | – | – | 48%
15 | O=C1CCC(N2Cc3cc(C(=O)N[C@H](c4ccc(F)cc4)C4(O)CC4)ccc3C2=O)C(=O)N1 (stereo partly drawn) [Compound 65, 2-(2,6-dioxopiperidin-3-yl)-N—((R)-(4-fluorophenyl)(1-hydroxycyclopropyl)methyl)-1-oxoisoindoline-5-carboxamide] | 59.6% | 721 nM | 23.1% | – | –
16 | O=C1CCC(N2Cc3cc(C(=O)N[C@H](c4ncc(Cl)cc4F)C4CCC4)ccc3C2=O)C(=O)N1 (stereo in doubt) [Compound 80, N-((*S)-(5-chloro-3-fluoropyridin-2-yl)(cyclobutyl)methyl)-2-(2,6-dioxopiperidin-3-yl)-1-oxoisoindoline-5-carboxamide] | 61.1% | 652 nM | 14.2% | – | –
17 | Cc1ccccc1[C@@H](NC(=O)c1ccc2c(c1)CN(C1CCC(=O)NC1=O)C2=O)C1CC1 (stereo in doubt) [Compound 39, N-((*S)-cyclopropyl(o-tolyl)methyl)-2-(2,6-dioxopiperidin-3-yl)-1-oxoisoindoline-5-carboxamide] | 61% | 363 nM | 32.5% | – | –
18 | O=C1CCC(N2Cc3cc(C(=O)NC(c4cccc(F)c4Cl)C4CC4)ccc3C2=O)C(=O)N1 (stereo not shown) [Compound 43, N-((2-chloro-3-fluorophenyl)(cyclopropyl)methyl)-2-(2,6-dioxopiperidin-3-yl)-1-oxoisoindoline-5-carboxamide] | 69.8% | 49.6 nM | 58.2% | – | –
19 | O=C1CC[C@@H](N2Cc3cc(C(=O)N[C@H](c4ccc(F)cc4Cl)C4CCC4)ccc3C2=O)C(=O)N1 (racemic) [Compound 50, N-((*S)-(2-chloro-4-fluorophenyl)(cyclobutyl)methyl)-2-((*R)-2,6-dioxopiperidin-3-yl)-1-oxoisoindoline-5-carboxamide] | 63.1% | 237 nM | 42.7% | – | –
20 | COc1cccc([C@H](NC(=O)c2ccc3c(c2)CN(C2CCC(=O)NC2=O)C3=O)C2CC2)c1 (stereo in doubt) [Compound 31, N-((*R)-cyclopropyl(3-methoxyphenyl)methyl)-2-(2,6-dioxopiperidin-3-yl)-1-oxoisoindoline-5-carboxamide] | 48.1% | – | 60% | – | –
21 | O=C1CCC(N2Cc3cc(C(=O)N[C@@H](c4c(F)cccc4F)C4CCC4)ccc3C2=O)C(=O)N1 (stereo in doubt) [Compound 66, N-((*R)-cyclobutyl(2,6-difluorophenyl)methyl)-2-(2,6-dioxopiperidin-3-yl)-1-oxoisoindoline-5-carboxamide] | 67.9% | 118 nM | 55.3% | – | –
22 | COc1ccccc1C(NC(=O)c1ccc2c(c1)CN(C1CCC(=O)NC1=O)C2=O)C1CC1 (stereo not shown) [Compound 15, N-(cyclopropyl(2-methoxyphenyl)methyl)-2-(2,6-dioxopiperidin-3-yl)-1-oxoisoindoline-5-carboxamide] | 73.2% | 66.6 nM | 24.5% | – | –
23 | O=C1CCC(N2Cc3cc(C(=O)N[C@H](c4cccc(F)c4)C4CC4)ccc3C2=O)C(=O)N1 (stereo in doubt) [Compound 26, N-((*S)-cyclopropyl(3-fluorophenyl)methyl)-2-(2,6-dioxopiperidin-3-yl)-1-oxoisoindoline-5-carboxamide] | 58.4% | 417 nM | 30.7% | – | –
24 | O=C1CC[C@@H](N2Cc3cc(C(=O)N[C@H](c4ccc(F)cc4Cl)C4CCC4)ccc3C2=O)C(=O)N1 (racemic) [Compound 52, N-((*S)-(2-chloro-4-fluorophenyl)(cyclobutyl)methyl)-2-((*R)-2,6-dioxopiperidin-3-yl)-1-oxoisoindoline-5-carboxamide] | – | 95 nM | – | 73.9% | 28.5%
